Data: ChEMBL document CHEMBL1141263, “Sesquiterpenoids and cytotoxic lignans from the bark of Libocedrus chevalieri” (J Nat Prod, 2007)
pIC50: −log10 of the molar value.

Assays:
[1] = Inhibition of tubulin polymerization
KB = assay: Cytotoxicity against human KB cells by microculture tetrazolium assay; format: functional, cell-based
L1210 = assay: Cytotoxicity against mouse L1210 cells by microculture tetrazolium assay; format: functional, cell-based

SMILES	pIC50 [1]	pIC50 (KB)	pIC50 (L1210)
COc1cc([C@@H]2c3cc4c(c(OC)c3[C@H](O)[C@H]3COC(=O)[C@H]23)OCO4)cc(OC)c1OC	5.30	7.96	
COc1cc([C@@H]2c3cc4c(c(OC)c3[C@@H](O)[C@H]3COC(=O)[C@H]23)OCO4)cc(OC)c1OC	5.05	7.35	4.09
